Measurements: ChEMBL document CHEMBL1201862, “PubChem BioAssay data set” (2004)
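96-well plates; 48 h exposure; 5 concentrations. Endpoints by linear interpolation between flanking doses. Not reached: highest tested concentration assigned. GI50 marks 50% less growth.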 Active and inactive are the calls of the source. No stated cut-off is given here; in the data, active = GI50 up to about 1.1 µM and inactive = higher.

Columns and labels:
Experiment in all cases: inhibition of tumour cell growth, NCI panel, 48 h
CAKI-1 = tested on: CAKI-1
SK-MEL-2 = tested on: SK-MEL-2
T47D = tested on: T47D
SNB-75 = tested on: SNB-75
SF-295 = tested on: SF-295
IGROV-1 = tested on: IGROV-1
OVCAR-4 = tested on: OVCAR-4
UACC-62 = tested on: UACC-62
K562 = tested on: K562
EKVX = tested on: EKVX
OVCAR-8 = tested on: OVCAR-8
DU-145 = tested on: DU-145
LOX IMVI = tested on: LOX IMVI
MCF7 = tested on: MCF7
NCI/ADR-RES = tested on: NCI/ADR-RES
HL-60 = tested on: HL-60
BT-549 = tested on: BT-549
NCI-H23 = tested on: NCI-H23
KM12 = tested on: KM12
HT-29 = tested on: HT-29
SK-OV-3 = tested on: SK-OV-3
SNB-19 = tested on: SNB-19
MDA-N = tested on: MDA-N
RPMI-8226 = tested on: RPMI-8226
Malme-3M = tested on: Malme-3M
MDA-MB-231 = tested on: MDA-MB-231
NCI-H460 = tested on: NCI-H460
CCRF-CEM = tested on: CCRF-CEM
HCT-116 = tested on: HCT-116
HOP-62 = tested on: HOP-62
786-0 = tested on: 786-0
NCI-H226 = tested on: NCI-H226
HCT-15 = tested on: HCT-15
OVCAR-5 = tested on: OVCAR-5
U-251 = tested on: U-251
Hs-578T = tested on: Hs-578T
SF-268 = tested on: SF-268
NCI-H522 = tested on: NCI-H522
SR = tested on: SR
OVCAR-3 = tested on: OVCAR-3
UACC-257 = tested on: UACC-257
ACHN = tested on: ACHN
A498 = tested on: A498
SK-MEL-28 = tested on: SK-MEL-28
A549 = tested on: A549
SN12C = tested on: SN12C
SW-620 = tested on: SW-620
MOLT-4 = tested on: MOLT-4
RXF 393 = tested on: RXF 393
MDA-MB-435 = tested on: MDA-MB-435
HCC 2998 = tested on: HCC 2998
SK-MEL-5 = tested on: SK-MEL-5
COLO 205 = tested on: COLO 205
M14 = tested on: M14
SF-539 = tested on: SF-539
UO-31 = tested on: UO-31
PC-3 = tested on: PC-3
TK-10 = tested on: TK-10
HOP-92 = tested on: HOP-92

With `CCOC(=O)C(=O)/C(=C/NC(=S)c1ccncc1)C(=O)OCC` the GI50 (CAKI-1) was > 100 µM (inactive), the GI50 (SK-MEL-2) was > 100 µM (inactive) and the GI50 (T47D) was > 100 µM (inactive). For the same molecule, the GI50 (SNB-75) was > 100 µM (inactive), the GI50 (SF-295) was > 100 µM (inactive) and the GI50 (IGROV-1) was > 100 µM (inactive). For the same molecule, the GI50 (OVCAR-4) was > 100 µM (inactive), the GI50 (UACC-62) was > 100 µM (inactive) and the GI50 (K562) was > 100 µM (inactive). The GI50 (EKVX) was > 100 µM (inactive), the GI50 (OVCAR-8) was > 100 µM (inactive) and the GI50 (DU-145) was > 100 µM (inactive). The GI50 (LOX IMVI) was > 100 µM (inactive), the GI50 (MCF7) was > 100 µM (inactive) and the GI50 (NCI/ADR-RES) was > 100 µM (inactive). For the same molecule, the GI50 (HL-60) was > 100 µM (inactive), the GI50 (BT-549) was > 100 µM (inactive) and the GI50 (NCI-H23) was > 100 µM (inactive). For the same molecule, the GI50 (KM12) was > 100 µM (inactive), the GI50 (HT-29) was > 100 µM (inactive) and the GI50 (SK-OV-3) was > 100 µM (inactive). For the same molecule, the GI50 (SNB-19) was 9.68 µM (inactive), the GI50 (MDA-N) was > 100 µM (inactive) and the GI50 (RPMI-8226) was > 100 µM (inactive). The GI50 (Malme-3M) was > 100 µM (inactive), the GI50 (MDA-MB-231) was > 100 µM (inactive) and the GI50 (NCI-H460) was > 100 µM (inactive). For the same molecule, the GI50 (CCRF-CEM) was > 100 µM (inactive), the GI50 (HCT-116) was > 100 µM (inactive) and the GI50 (HOP-62) was > 100 µM (inactive). The GI50 (786-0) was > 100 µM (inactive), the GI50 (NCI-H226) was > 100 µM (inactive) and the GI50 (HCT-15) was over 100 µM. For the same molecule, the GI50 (OVCAR-5) was > 100 µM (inactive), the GI50 (U-251) was > 100 µM (inactive) and the GI50 (Hs-578T) was > 100 µM (inactive). The GI50 (SF-268) was > 100 µM (inactive), the GI50 (NCI-H522) was > 100 µM (inactive) and the GI50 (SR) was > 100 µM (inactive). The GI50 (OVCAR-3) was 0.0724 µM (active), the GI50 (UACC-257) was > 100 µM (inactive) and the GI50 (ACHN) was > 100 µM (inactive). For the same molecule, the GI50 (A498) was > 100 µM (inactive), the GI50 (SK-MEL-28) was > 100 µM (inactive) and the GI50 (A549) was > 100 µM (inactive). The GI50 (SN12C) was > 100 µM (inactive), the GI50 (SW-620) was > 100 µM (inactive) and the GI50 (MOLT-4) was > 100 µM (inactive). The GI50 (RXF 393) was > 100 µM (inactive), the GI50 (MDA-MB-435) was > 100 µM (inactive) and the GI50 (HCC 2998) was > 100 µM (inactive). The GI50 (SK-MEL-5) was > 100 µM (inactive), the GI50 (COLO 205) was > 100 µM (inactive) and the GI50 (M14) was > 100 µM (inactive). The GI50 (SF-539) was > 100 µM (inactive), the GI50 (UO-31) was 5.71 µM (inactive) and the GI50 (PC-3) was > 100 µM (inactive).

For `CC(=O)Oc1cc(S(=O)(=O)Nc2nc(N)n[nH]2)c(S)cc1Cl`, the GI50 (CAKI-1) was > 100 µM (inactive), the GI50 (SK-MEL-2) was > 100 µM (inactive) and the GI50 (TK-10) was > 100 µM (inactive). The GI50 (T47D) was > 100 µM (inactive), the GI50 (SF-295) was > 100 µM (inactive) and the GI50 (IGROV-1) was > 100 µM (inactive). The GI50 (OVCAR-4) was > 100 µM (inactive), the GI50 (UACC-62) was > 100 µM (inactive) and the GI50 (K562) was > 100 µM (inactive). The GI50 (EKVX) was > 100 µM (inactive), the GI50 (OVCAR-8) was > 100 µM (inactive) and the GI50 (DU-145) was > 100 µM (inactive). For the same molecule, the GI50 (LOX IMVI) was > 100 µM (inactive), the GI50 (MCF7) was > 100 µM (inactive) and the GI50 (NCI/ADR-RES) was > 100 µM (inactive). For the same molecule, the GI50 (HL-60) was > 100 µM (inactive), the GI50 (BT-549) was > 100 µM (inactive) and the GI50 (NCI-H23) was > 100 µM (inactive). For the same molecule, the GI50 (KM12) was > 100 µM (inactive), the GI50 (HT-29) was > 100 µM (inactive) and the GI50 (SNB-19) was > 100 µM (inactive). For the same molecule, the GI50 (MDA-N) was > 100 µM (inactive), the GI50 (RPMI-8226) was > 100 µM (inactive) and the GI50 (Malme-3M) was > 100 µM (inactive). The GI50 (MDA-MB-231) was > 100 µM (inactive), the GI50 (NCI-H460) was > 100 µM (inactive) and the GI50 (CCRF-CEM) was > 100 µM (inactive). The GI50 (HCT-116) was > 100 µM (inactive), the GI50 (HOP-62) was > 100 µM (inactive) and the GI50 (786-0) was > 100 µM (inactive). For the same molecule, the GI50 (HCT-15) was over 100 µM, the GI50 (OVCAR-5) was > 100 µM (inactive) and the GI50 (U-251) was > 100 µM (inactive). The GI50 (Hs-578T) was > 100 µM (inactive), the GI50 (NCI-H522) was > 100 µM (inactive) and the GI50 (HOP-92) was > 100 µM (inactive). For the same molecule, the GI50 (SR) was > 100 µM (inactive), the GI50 (OVCAR-3) was > 100 µM (inactive) and the GI50 (UACC-257) was > 100 µM (inactive). The GI50 (ACHN) was > 100 µM (inactive), the GI50 (A498) was > 100 µM (inactive) and the GI50 (SK-MEL-28) was > 100 µM (inactive). The GI50 (A549) was > 100 µM (inactive), the GI50 (SN12C) was > 100 µM (inactive) and the GI50 (SW-620) was > 100 µM (inactive). For the same molecule, the GI50 (MOLT-4) was > 100 µM (inactive), the GI50 (MDA-MB-435) was > 100 µM (inactive) and the GI50 (HCC 2998) was > 100 µM (inactive). For the same molecule, the GI50 (SK-MEL-5) was > 100 µM (inactive), the GI50 (COLO 205) was > 100 µM (inactive) and the GI50 (M14) was > 100 µM (inactive). The GI50 (SF-539) was > 100 µM (inactive), the GI50 (UO-31) was > 100 µM (inactive) and the GI50 (PC-3) was > 100 µM (inactive).

In the case of `CC(=O)OC(Cc1cc(C=C(C(F)(F)F)C(F)(F)F)cc(C)n1)(C(F)(F)F)C(F)(F)F`, the GI50 (CAKI-1) is reported as 1.77 µM (inactive), the GI50 (SK-MEL-2) is reported as 2.1 µM (inactive) and the GI50 (TK-10) is reported as 2.8 µM (inactive). The GI50 (T47D) was 1.9 µM (inactive), the GI50 (SNB-75) was 2.03 µM (inactive) and the GI50 (SF-295) was 2.82 µM (inactive). The GI50 (IGROV-1) was 1.1 µM (active), the GI50 (OVCAR-4) was 1.72 µM (inactive) and the GI50 (UACC-62) was 1.68 µM (inactive). The GI50 (K562) was 0.774 µM (active), the GI50 (EKVX) was 2.01 µM (inactive) and the GI50 (OVCAR-8) was 1.04 µM (active). The GI50 (DU-145) was 2.48 µM (inactive), the GI50 (LOX IMVI) was 1.14 µM (inactive) and the GI50 (MCF7) was 0.14 µM (active). The GI50 (NCI/ADR-RES) was 2.28 µM (inactive), the GI50 (HL-60) was 0.124 µM (active) and the GI50 (BT-549) was 1.77 µM (inactive). The GI50 (NCI-H23) was 1.45 µM (inactive), the GI50 (KM12) was 1.55 µM (inactive) and the GI50 (HT-29) was 0.55 µM (active). The GI50 (SK-OV-3) was 19.5 µM (inactive), the GI50 (SNB-19) was 1.88 µM (inactive) and the GI50 (MDA-N) was 1.55 µM (inactive). The GI50 (RPMI-8226) was 0.656 µM (active), the GI50 (Malme-3M) was 2.48 µM (inactive) and the GI50 (MDA-MB-231) was 1.5 µM (inactive). For the same molecule, the GI50 (NCI-H460) was 1.99 µM (inactive), the GI50 (CCRF-CEM) was 0.217 µM (active) and the GI50 (HCT-116) was 1.1 µM (active). The GI50 (HOP-62) was 1.79 µM (inactive), the GI50 (786-0) was 0.839 µM (active) and the GI50 (NCI-H226) was 1.78 µM (inactive). The GI50 (HCT-15) was 0.975 µM, the GI50 (OVCAR-5) was 2.18 µM (inactive) and the GI50 (U-251) was 1.55 µM (inactive). The GI50 (Hs-578T) was 1.95 µM (inactive), the GI50 (SF-268) was 1.74 µM (inactive) and the GI50 (NCI-H522) was 2.01 µM (inactive). The GI50 (SR) was 0.352 µM (active), the GI50 (OVCAR-3) was 1.36 µM (inactive) and the GI50 (UACC-257) was 1.74 µM (inactive). The GI50 (ACHN) was 1.39 µM (inactive), the GI50 (A498) was 1.75 µM (inactive) and the GI50 (SK-MEL-28) was 1.38 µM (inactive). The GI50 (A549) was 2.88 µM (inactive), the GI50 (SN12C) was 1.44 µM (inactive) and the GI50 (SW-620) was 1.28 µM (inactive). The GI50 (MOLT-4) was < 0.01 µM (active), the GI50 (RXF 393) was 0.855 µM (active) and the GI50 (MDA-MB-435) was 1.48 µM (inactive). For the same molecule, the GI50 (HCC 2998) was 5.2 µM (inactive), the GI50 (SK-MEL-5) was 1.49 µM (inactive) and the GI50 (COLO 205) was 0.759 µM (active). The GI50 (M14) was 1.57 µM (inactive), the GI50 (SF-539) was 2.06 µM (inactive) and the GI50 (UO-31) was 1.64 µM (inactive). For the same molecule, the GI50 (PC-3) was 1.77 µM (inactive).
